These molecules were tested against T1, human B1R receptor (CHO K1 cells stably transfected with the human B1R gene) (Homo sapiens, UniProt P46663) (assay: Functional study on the bradykinin receptor 1 (B1R), Ca2+ fluorescence (Fluo-4) FLIPR/Novostar assay, hB1R cells). Conditions: CHO-K1, read-out: % Inhibition (h-B1R) at 10 μM.
T1 construct: expressed in transfected cells; host or cells: CHO K1 cells (Chinese hamster ovary), stably transfected
T1 sequence (P46663 1-353): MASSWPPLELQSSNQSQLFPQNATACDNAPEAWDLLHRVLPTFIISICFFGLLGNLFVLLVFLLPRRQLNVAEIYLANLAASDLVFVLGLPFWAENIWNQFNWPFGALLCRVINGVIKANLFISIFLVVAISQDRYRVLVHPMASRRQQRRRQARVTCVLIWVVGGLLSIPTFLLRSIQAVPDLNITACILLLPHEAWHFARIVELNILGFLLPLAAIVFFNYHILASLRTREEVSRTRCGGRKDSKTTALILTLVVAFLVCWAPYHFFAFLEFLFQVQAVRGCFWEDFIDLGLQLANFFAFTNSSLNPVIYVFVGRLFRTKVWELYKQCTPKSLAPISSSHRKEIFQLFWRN
Assay type: cell-based
Procedure: The agonistic or antagonistic action of substances can be quantified on the bradykinin receptor 1 (B1R) of the species human and rat using ectopically expressing cell lines (CHO K1 cells) and with the aid of a Ca^2+-sensitive dye (Fluo-4) using a fluorescent imaging plate reader (FLIPR). The indication in % activation is based on the Ca^2+ signal after addition of Lys-Des-Arg^9-bradykinin (0.5 nM) or Des-Arg^9-bradykinin (100 nM). Antagonists lead to suppression of the Ca^2+ influx after the addition of the agonist. % Inhibition compared with the maximum achievable inhibition is indicated.
The agonistic or antagonistic action of substances can be determined on the bradykinin receptor 1 (B1R) of the species human and rat using the following assay. According to this assay, the increase in intracellular Ca^2+ following administration of a B1R agonist is quantified with the aid of a Ca^2+-sensitive dye (Fluo-4 type, Molecular Probes Europe BV, Leiden, Netherlands) using a Fluorescent Imaging Plate Reader (FLIPR, Molecular Devices, Sunnyvale, USA) and/or using a Novostar (BMG Labtech GmbH, Offenburg, Germany).
Chinese hamster ovary cells (CHO K1 cells) which have been stably transfected with the human B1R gene (hB1R cells) or with the B1R gene of the rat (rB1R cells) are used. For functional studies, the cells are plated out on black 96-well plates having a clear base (BD Biosciences, Heidelberg, Germany or Greiner, Frickenhausen, Germany) in a density of 20,000-35,000 cells/well. The cells are left overnight at 37° C. and with 5% CO2 in culture medium (hB1R cells: Nutrient Mixture Ham's F12, Gibco Invitrogen GmbH, Karlsruhe, Germany or DMEM, Sigma-Aldrich, Taufkirchen, Germany; rB1R cells: D-MEM/F12, Gibco Invitrogen GmbH, Karlsruhe, Germany), with 10 vol. % FBS (fetal bovine serum, Gibco Invitrogen GmbH, Karlsruhe, Germany or PAN Biotech GmbH, Aidenbach, Germany). On the following day, the cells are loaded for 60 minutes at 37° C. with 2.13 μM Fluo-4 (Molecular Probes Europe BV, Leiden, Netherlands) in HBSS buffer (Hank's buffered saline solution, Gibco Invitrogen GmbH, Karlsruhe, Germany) […] (Sigma-Aldrich, Taufkirchen, Germany) and 10 mM HEPES (Sigma-Aldrich, Taufkirchen, Germany). The plates are then washed twice with HBSS buffer, and HBSS buffer additionally containing 0.1% BSA (bovine serum albumin; Sigma-Aldrich, Taufkirchen, Germany), 5.6 mM glucose and 0.05% gelatin (Merck KGaA, Darmstadt, Germany) is added to the plates. After incubation for a further 20 minutes at room temperature, the plates are inserted into the FLIPR or Novostar for Ca^2+ measurement. Alternatively, washing is carried out with buffer A (15 mM HEPES, 80 mM NaCl, 5 mM KCl, 1.2 mM CaCl2, 0.7 mM MgSO4, 2 g/l glucose, 2.5 mM probenecid) followed by loading with buffer A with added 2.5 μM Fluo-4 and 0.025% Pluronic F127 (Sigma-Aldrich, Taufkirchen, Germany). The cells are then washed twice with buffer A and incubated for 30 minutes at room temperature with buffer A additionally containing 0.05% BSA and 0.05% gelatin and are then inserted into the FLIPR or Novostar for Ca^2+ measurement. The Ca^2+-dependent fluorescence is measured before and after the addition of substances (λex=488 nm, λem=540 nm). Quantification is carried out by measuring the highest fluorescence intensity (FC, fluorescence counts) over time.
The FLIPR protocol consists of 2 substance additions, which are pipetted in the FLIPR. In the case of measurements using the Novostar, only the second substance addition is pipetted in the device. Both devices measure the fluorescence intensity over time. Test substances (10 μM) are first pipetted onto the cells and the intracellular Ca^2+ increase is compared with the control (hB1R: Lys-Des-Arg^9-bradykinin>=50 nM; rB1R: Des-Arg^9-bradykinin>=1 μM). This gives the % activation, based on the Ca^2+ signal after addition of Lys-Des-Arg^9-bradykinin (>=50 nM) or Des-Arg^9-bradykinin (>=1 μM). […]
For `Cc1cccc(C)c1C(=O)NC1CCOc2ccc(C(=O)N(C)C3CCN(c4ccncc4)CC3)cc21` (stereo not shown) [CC_H-71, 4-[(2,6-Dimethyl-benzoyl)amino]-N-methyl-N-(1-pyridin-4-yl-piperidin-4-yl)-3,4-dihydro-2H-chromene-6-carboxylic acid amide], the inhibition at 10 µM was 84%. `CN(C(=O)c1ccc2c(c1)C(NC(=O)c1c(Cl)cccc1C(F)(F)F)CCO2)C1CCN(c2ccncc2)CC1` (stereo not shown) [CC_H-72, 4-[[2-Chloro-6-(trifluoromethyl)-benzoyl]amino]-N-methyl-N-(1-pyridin-4-yl-piperidin-4-yl)-3,4-dihydro-2H-chromene-6-carboxylic acid amide] gave an inhibition at 10 µM of 93%. With `CN(C(=O)c1ccc2c(c1)C(NC(=O)c1ccccc1Cl)CCC2)C1CCN(c2ccncc2)CC1` (stereo not shown) [CC_H-73, 8-[(2-Chloro-benzoyl)amino]-N-methyl-N-(1-pyridin-4-yl-piperidin-4-yl)-5,6,7,8-tetrahydro-naphthalene-2-carboxylic acid amide] the inhibition at 10 µM was 100%. With `O=C(NCCC1CCN(c2ccncc2)CC1)c1ccc2c(c1)C(NC(=O)c1cccc(Cl)c1Cl)CC2` (stereo not shown) [CC_H-74, 3-[(2,3-Dichloro-benzoyl)amino]-N-[2-(1-pyridin-4-yl-piperidin-4-yl)-ethyl]-2,3-dihydro-1H-indene-5-carboxylic acid amide] the inhibition at 10 µM was 96%. `CN(C(=O)c1ccc2c(c1)C(NC(=O)c1ccccc1Cl)CC2)C1CCN(c2ccc3cnccc3c2)CC1` (stereo not shown) [CC_H-75, 3-[(2-Chloro-benzoyl)amino]-N-(1-isoquinolin-6-yl-piperidin-4-yl)-N-methyl-2,3-dihydro-1H-indene-5-carboxylic acid amide] was tested, and the inhibition at 10 µM was 99%.

Each molecule was assayed against T2, B1R receptor of the rat (CHO K1 cells stably transfected with the B1R gene of the rat) (Rattus norvegicus, UniProt P97583) (assay: Functional study on the bradykinin receptor 1 (B1R), Ca2+ fluorescence (Fluo-4) FLIPR/Novostar assay, rB1R cells). Conditions: CHO-K1, 10 μM, library compounds CC_H, read-out: % Inhibition (r-B1R) at 10 μM.
T2 construct: expressed in transfected cells; host or cells: CHO K1 cells (Chinese hamster ovary), stably transfected
T2 sequence (P97583 1-337): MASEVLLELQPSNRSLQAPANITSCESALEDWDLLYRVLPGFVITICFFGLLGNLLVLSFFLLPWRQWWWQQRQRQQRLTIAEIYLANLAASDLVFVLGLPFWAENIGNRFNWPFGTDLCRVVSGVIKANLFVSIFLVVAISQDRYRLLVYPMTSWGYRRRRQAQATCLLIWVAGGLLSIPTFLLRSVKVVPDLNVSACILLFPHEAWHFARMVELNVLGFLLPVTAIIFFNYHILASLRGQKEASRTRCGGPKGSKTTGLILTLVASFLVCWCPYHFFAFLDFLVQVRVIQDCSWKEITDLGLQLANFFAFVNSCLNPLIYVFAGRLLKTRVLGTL
Assay type: cell-based
How it was run: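 Ca2+ influx (Fluo-4, peak fluorescence, λex 488/λem 540 nm) was measured in CHO K1 lines expressing rat or human B1R. After a 10 μM test-compound pre-addition scoring % activation, cells received EC80 agonist: Des-Arg9-bradykinin for rat, Lys-Des-Arg9-bradykinin for human. Antagonism was expressed as % of maximum inhibition, with IC50 from varied concentrations.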
Work on `Cc1cc(N2CCC(N(C)C(=O)c3ccc4c(c3)C(NC(=O)CCC3CCCC3)CC4)CC2)nc(N(C)C)n1` (stereo not shown) [CC_H-622, 3-(3-Cyclopentyl-propanoylamino)-N-[1-(2-dimethylamino-6-methyl-pyrimidin-4-yl)-piperidin-4-yl]-N-methyl-2,3-dihydro-1H-indene-5-carboxylic acid amide] yielded an inhibition at 10 µM of 100%. `CN(C)c1nccc(N2CCC(N(C)C(=O)c3ccc4c(c3)C(NC(=O)c3ccccc3Cl)CC4)CC2)n1` (stereo not shown) [CC_H-623, 3-[(2-Chloro-benzoyl)amino]-N-[1-(2-dimethylamino-pyrimidin-4-yl)-piperidin-4-yl]-N-methyl-2,3-dihydro-1H-indene-5-carboxylic acid amide] was tested, and the inhibition at 10 µM was 101%. `CN(C(=O)c1ccc2c(c1)C(NC(=O)CCC1CCCC1)CC2)C1CCN(c2ccnc(C(C)(C)C)n2)CC1` (stereo not shown) [CC_H-624, N-[1-(2-tert-Butyl-pyrimidin-4-yl)-piperidin-4-yl]-3-(3-cyclopentyl-propanoylamino)-N-methyl-2,3-dihydro-1H-indene-5-carboxylic acid amide] was tested, and the inhibition at 10 µM was 96%. Molecule `CN(C(=O)c1ccc2c(c1)C(NC(=O)c1ccccc1Cl)CC2)C1CCN(c2ccnc(C3CC3)n2)CC1` (stereo not shown) [CC_H-627, 3-[(2-Chloro-benzoyl)amino]-N-[1-(2-cyclopropyl-pyrimidin-4-yl)-piperidin-4-yl]-N-methyl-2,3-dihydro-1H-indene-5-carboxylic acid amide] has an inhibition at 10 µM of 100%. In the case of `CN(C(=O)c1ccc2c(c1)C(NC(=O)c1cccnc1C(F)(F)F)CC2)C1CCN(c2ccnnc2)CC1` (stereo not shown) [CC_H-628, N-[6-[Methyl-(1-pyridazin-4-yl-piperidin-4-yl)-carbamoyl]-2,3-dihydro-1H-inden-1-yl]-2-(trifluoromethyl)-pyridine-3-carboxylic acid amide], the inhibition at 10 µM was 99%. For `CN(C)c1nccc(N2CCC(N(C)C(=O)c3ccc4c(c3)C(NC(=O)CCC3CCCC3)CC4)CC2)n1` (stereo not shown) [CC_H-629, 3-(3-Cyclopentyl-propanoylamino)-N-[1-(2-dimethylamino-pyrimidin-4-yl)-piperidin-4-yl]-N-methyl-2,3-dihydro-1H-indene-5-carboxylic acid amide], the inhibition at 10 µM was 101%. Molecule `CN(C(=O)c1ccc2c(c1)C(NC(=O)CCC1CCCC1)CC2)C1CCN(c2ccnc(C3CC3)n2)CC1` (stereo not shown) [CC_H-630, 3-(3-Cyclopentyl-propanoylamino)-N-[1-(2-cyclopropyl-pyrimidin-4-yl)-piperidin-4-yl]-N-methyl-2,3-dihydro-1H-indene-5-carboxylic acid amide] has an inhibition at 10 µM of 95%. Molecule `CN(C(=O)c1ccc2c(c1)C(NC(=O)c1ccccc1Cl)CC2)C1CCN(c2ncncc2F)CC1` (stereo not shown) [CC_H-631, 3-[(2-Chloro-benzoyl)amino]-N-[1-(5-fluoro-pyrimidin-4-yl)-piperidin-4-yl]-N-methyl-2,3-dihydro-1H-indene-5-carboxylic acid amide] has an inhibition at 10 µM of 94%. In the case of `CN(C(=O)c1ccc2c(c1)C(NC(=O)CCC1CCCC1)CC2)C1CCN(c2ncncc2F)CC1` (stereo not shown) [CC_H-632, 3-(3-Cyclopentyl-propanoylamino)-N-[1-(5-fluoro-pyrimidin-4-yl)-piperidin-4-yl]-N-methyl-2,3-dihydro-1H-indene-5-carboxylic acid amide], the inhibition at 10 µM was 95%. `CN(C(=O)c1ccc2c(c1)C(NC(=O)c1ccccc1Cl)CC2)C1CCN(c2ccnnc2)CC1` (stereo not shown) [CC_H-633, 3-[(2-Chloro-benzoyl)amino]-N-methyl-N-(1-pyridazin-4-yl-piperidin-4-yl)-2,3-dihydro-1H-indene-5-carboxylic acid amide] showed an inhibition at 10 µM of 103%. Work on `CN(C(=O)c1ccc2c(c1)C(NC(=O)CCC1CCCC1)CC2)C1CCN(c2ccnnc2)CC1` (stereo not shown) [CC_H-634, 3-(3-Cyclopentyl-propanoylamino)-N-methyl-N-(1-pyridazin-4-yl-piperidin-4-yl)-2,3-dihydro-1H-indene-5-carboxylic acid amide] yielded an inhibition at 10 µM of 93%.

Reference: patent publication US8680159B2, “Bradykinin 1 receptor modulating compounds” (Gruenenthal GmbH, priority 2010, dated 2014)
